Data set [1] in a line: The drug is tested on Z-023 corresponding to metagenome with ENA study accession number: PRJEB37062 and ENA sample accession number: ERS12561822 for biotransformation under anaerobic condition. The drug concentrations were measured over 9 timepoints collected between 0 and 24 hours of incubation by liquid-chromatography-coupled mass spectrometry (LC–MS). To be noted: 2 µM.

The nature of data set [2]: The drug is tested on Z-020 corresponding to rabbit gut metagenome with ENA study accession number: PRJEB37062 and ENA sample accession number: ERS12561819 for biotransformation under anaerobic condition. The drug concentrations were measured over 9 timepoints collected between 0 and 24 hours of incubation by liquid-chromatography-coupled mass spectrometry (LC–MS). To be noted: 2 µM.

The nature of data set [3]: The drug is tested on Z-018 corresponding to pig gut metagenome with ENA study accession number: PRJEB37062 and ENA sample accession number: ERS12561817 for biotransformation under anaerobic condition. The drug concentrations were measured over 9 timepoints collected between 0 and 24 hours of incubation by liquid-chromatography-coupled mass spectrometry (LC–MS). To be noted: 2 µM.

The nature of data set [4]: The drug is tested on Z-007 corresponding to rat gut metagenome with ENA study accession number: PRJEB37062 and ENA sample accession number: ERS12561807 for biotransformation under anaerobic condition. The drug concentrations were measured over 9 timepoints collected between 0 and 24 hours of incubation by liquid-chromatography-coupled mass spectrometry (LC–MS). To be noted: 2 µM.

Data set [5] can be described thus: The drug is tested on Z-002 corresponding to rabbit gut metagenome with ENA study accession number: PRJEB37062 and ENA sample accession number: ERS12561802 for biotransformation under anaerobic condition. The drug concentrations were measured over 9 timepoints collected between 0 and 24 hours of incubation by liquid-chromatography-coupled mass spectrometry (LC–MS). To be noted: 2 µM.

A short description of data set [6]: The drug is tested on WLS-170 corresponding to human gut metagenome with ENA study accession number: PRJEB37062 and ENA sample accession number: ERS12561762 for biotransformation under anaerobic condition. The drug concentrations were measured over 9 timepoints collected between 0 and 24 hours of incubation by liquid-chromatography-coupled mass spectrometry (LC–MS). To be noted: 2 µM.

Data set [7] is described as follows: The drug is tested on WLS-098 corresponding to human gut metagenome with ENA study accession number: PRJEB37062 and ENA sample accession number: ERS12561754 for biotransformation under anaerobic condition. The drug concentrations were measured over 9 timepoints collected between 0 and 24 hours of incubation by liquid-chromatography-coupled mass spectrometry (LC–MS). To be noted: 2 µM.

Data set [8] in a line: The drug is tested on WLS-082 corresponding to human gut metagenome with ENA study accession number: PRJEB37062 and ENA sample accession number: ERS12561751 for biotransformation under anaerobic condition. The drug concentrations were measured over 9 timepoints collected between 0 and 24 hours of incubation by liquid-chromatography-coupled mass spectrometry (LC–MS). To be noted: 2 µM.

Data set [9] in a line: The drug is tested on WLS-052 corresponding to human gut metagenome with ENA study accession number: PRJEB37062 and ENA sample accession number: ERS12561747 for biotransformation under anaerobic condition. The drug concentrations were measured over 9 timepoints collected between 0 and 24 hours of incubation by liquid-chromatography-coupled mass spectrometry (LC–MS). To be noted: 2 µM.

Data set [10] is described as follows: The drug is tested on WLS-006 corresponding to human gut metagenome with ENA study accession number: PRJEB37062 and ENA sample accession number: ERS12561741 for biotransformation under anaerobic condition. The drug concentrations were measured over 9 timepoints collected between 0 and 24 hours of incubation by liquid-chromatography-coupled mass spectrometry (LC–MS). To be noted: 2 µM.

The conditions of data set [11]: human gut metagenome, 24 h, 2 µM.
For data set [12] the following is noted: human gut metagenome, 24 h, 2 µM. This is another data set of the same source.
The conditions of data set [13]: human gut metagenome, 24 h, 2 µM. This is another data set of the same source.
The conditions of data set [14]: human gut metagenome, 24 h, 2 µM. This is another data set of the same source.
For data set [15] the following is noted: human gut metagenome, 24 h, 2 µM. This is another data set of the same source.
For data set [16] the following is noted: human gut metagenome, 24 h, 2 µM. The source holds these as a separate data set.
For data set [17] the following is noted: human gut metagenome, 24 h, 2 µM. This is another data set of the same source.
The conditions of data set [18]: human gut metagenome, 24 h, 2 µM. This is another data set of the same source.
The conditions of data set [19]: human gut metagenome, 24 h, 2 µM. The source holds these as a separate data set.
The conditions of data set [20]: human gut metagenome, 24 h, 2 µM. This is another data set of the same source.
Note: call rule not given here.

For `O=c1n(CCCN2CCN(c3cccc(Cl)c3)CC2)nc2ccccn12` [TRAZODONE], the “Bacterial Biotransformation” value in data set [1] is “Compound NOT metabolized”; in data set [2], “Compound NOT metabolized”; in [3] it was “Compound NOT metabolized”; in data set [4], “Compound NOT metabolized”; in data set [5] it was “Compound metabolized”; in data set [6] it was “Compound NOT metabolized”. The “Bacterial Biotransformation” value in [7] was “Compound metabolized”; in data set [8], “Compound metabolized”; in data set [9], “Compound NOT metabolized”; in data set [10], “Compound metabolized”; in [11], “Compound NOT metabolized”; in [12], “Compound metabolized”. In addition, the “Bacterial Biotransformation” value in data set [13] is given as “Compound metabolized”; in data set [14], “Compound metabolized”; in data set [15], “Compound metabolized”; in data set [16], “Compound NOT metabolized”; in [17] it was “Compound metabolized”; in [18] it was “Compound metabolized”. Moreover, the results for the “Bacterial Biotransformation” value in [19] and in data set [20] were “Compound NOT metabolized” and “Compound metabolized”, respectively.
Consider `OC(CCN1CCCCC1)(c1ccccc1)C1CCCCC1` (stereo not given) [TRIHEXYPHENIDYL], for which the “Bacterial Biotransformation” value was “Compound metabolized” in [1]; “Compound metabolized” in [2]; “Compound metabolized” in data set [3]; “Compound NOT metabolized” in data set [4]; “Compound metabolized” in data set [5]; “Compound metabolized” in [6]. Also, the “Bacterial Biotransformation” value in [7] is given as “Compound metabolized”; in data set [8], “Compound NOT metabolized”; in data set [9] it was “Compound NOT metabolized”; in [10], “Compound metabolized”; in [11], “Compound NOT metabolized”; in [12], “Compound metabolized”. Also, the “Bacterial Biotransformation” value in data set [13] is given as “Compound metabolized”; in data set [14], “Compound metabolized”; in [15], “Compound NOT metabolized”; in data set [16], “Compound metabolized”; in data set [17], “Compound NOT metabolized”; in data set [18], “Compound metabolized”. Further, the “Bacterial Biotransformation” value in [19] and in data set [20] was “Compound metabolized” each time.
For `Cc1cn([C@H]2C[C@H](N=[N+]=[N-])[C@@H](CO)O2)c(=O)[nH]c1=O` [ZIDOVUDINE], the “Bacterial Biotransformation” value in data set [1] is “Compound NOT metabolized”; in data set [2], “Compound metabolized”; in data set [3] it was “Compound NOT metabolized”; in data set [4], “Compound metabolized”; in data set [5], “Compound metabolized”; in [6], “Compound NOT metabolized”. For the same molecule, the “Bacterial Biotransformation” value was “Compound NOT metabolized” in [7]; “Compound NOT metabolized” in data set [8]; “Compound NOT metabolized” in data set [9]; “Compound metabolized” in data set [10]; “Compound NOT metabolized” in data set [11]; “Compound NOT metabolized” in [12]. In addition, the “Bacterial Biotransformation” value in [13], in data set [14], in data set [15], in data set [16], in data set [17] and in data set [18] was “Compound NOT metabolized” in each case. The “Bacterial Biotransformation” value in data set [19] and in data set [20] was “Compound NOT metabolized” throughout.

(Values after ChEMBL document CHEMBL5724914, “Linking interpersonal differences in gut microbiota composition and drug biotransformation activity” (2024).)
